“Also recorded” adds a separate entry of the source. Where two headings read alike, the source gives them in different places.
How the values were obtained:
Hs578Bst = assay: Apoptosis, cleaved caspase-3/cleaved PARP flow cytometry; type: cell-based, human; conditions: erlotinib-doxorubicin combinations; normal peripheral breast tissue line
Protocol: (§1) 1×10^6 cells were seeded in a 10 cm dish 24 hr prior to the experiment. […] Following the treatment time course, cells were washed in PBS, trypsinized, and fixed in 4% paraformaldehyde (PFA) in PBS for 15 min at room temperature (RT), then resuspended in ice cold methanol and incubated overnight at −20° C. Cells were then washed twice in PBS+0.1% Tween and stained with antibodies directed against cleaved forms of caspase-3 and PARP (BD PharMingen). […] Data reported are always percent cleaved-caspase-3/cleaved-PARP double positive cells.
(§2) Following the treatment time course, cells were washed, trypsinized, fixed in 4% paraformaldehyde for 15 min at room temperature, resuspended in ice-cold methanol, and incubated overnight at −20° C. Cells were then washed twice in PBS-Tween and stained with antibodies against cleaved caspase-3 and poly(ADP-ribose) polymerase (PARP). Secondary Alexa-conjugated anti-bodies were used for visualization in a BD FacsCaliber flow cytometer.

MDA-MB-453 cells [1] = assay: as above; type: cell-based, human
Protocol: (§3) 1×10^6 cells were seeded in a 10 cm dish 24 hr prior to the experiment. […]. Following the treatment time course, cells were washed in PBS, trypsinized, and fixed in 4% paraformaldehyde (PFA) in PBS for 15 min at room temperature (RT), then resuspended in ice cold methanol and incubated overnight at −20° C. Cells were then washed twice in PBS+0.1% Tween and stained with antibodies directed against cleaved forms of caspase-3 and PARP (BD PharMingen). Secondary antibodies conjugated to Alexa dyes (488 and 647) were used for visualization in a BD FacsCaliber flow cytometer (Molecular Probes). Data reported are always percent cleaved-caspase-3/cleaved-PARP double positive cells.
as §2

BT-474 cells = assay: as above; type: cell-based, human
Protocol: as §3, §2

NCI-H358 = assay: as above; conditions: time-staggered inhibition of EGFR using erlotinib (ERL→DOX)
MDA-MB-453 cells [2] = assay: RNA expression analysis by microarray; type: cell-based, human; conditions: erlotinib alone, 24 hr
Excerpt: (§4) RNA was extracted from cells using the RNAeasy Kit (QIAGEN). Affymetrix Human U133 Plus 2.0 microarrays were hybridized, labeled, and processed on a fee-for-service basis through the MIT BioMicro Center. Microarray data were obtained from three independent biological replicates per time point and analyzed using linear model for microarray (LIMMA).
(§5) RNA was extracted from cells using the RNAeasy Kit (QIAGEN). Affymetrix Human U133 Plus 2.0 microarrays were hybridized, labeled and processed on a fee-for-service basis through the BioMicro Center at MIT. Microarray data were obtained from 3 independent biological replicates per time point. Detailed analysis of microarray data was performed with help from the Bioinformatics Core Facility at the Koch Institute at MIT. Expression data can be found in the GEO repository under the accession number GSE30516.

BT-20 cells [3] = assay: RNA expression analysis by microarray; type: cell-based, human; conditions: for differentially expressed genes (DEGs): erlotinib alone
Excerpt: as §4, §5

MCF7 cells [4] = assay: RNA expression analysis by microarray; type: cell-based, human; conditions: erlotinib alone, 24 hr
Excerpt: as §4, §5

caspase-8 [5] = assay: Caspase-8 cleavage by western blot in TNBC cell lines; type: cell-based, human; conditions: TNBC cell lines in which ERL→DOX was synergistic; 8 hr after DOX
Excerpt: (§6) Cells were lysed in a manner that would allow samples to be used for both western blot analysis and reverse-phase protein microarray. Data generated by quantitative western blot were preprocessed prior to use in computational modeling. Raw signals for each protein target of interest were quantified and background subtracted using the Li-COR Odyssey software and divided by P-actin signals to normalize for loading differences, and then each normalized signal was divided by a reference sample contained on each gel for gel-to-gel normalization.

BT-20 cells [6] = assay: Soft agar growth assay; type: cell-based, human; conditions: sustained EGFR inhibition with erlotinib
Protocol: Soft agar growth assays were performed as described by Sapi, E., Flick, M. B., Rodov, S, and Kacinski, B. M. (1998). Ets-2 Transdominant Mutant Abolishes Anchorage-Independent Growth and Macrophage Colony Stimulating Factor-Stimulated Invasion by BT20 Breast Carcinoma Cells. Cancer Res. 58, 1027-1033.

BT-20 cells [7] = tested on: BT-20 cells
Protocol: as §1, §2

BT-20 xenograft tumors = assay: Xenograft tumor model
caspase-8 [8] = assay: Caspase-8 cleavage by western blot in lung cancer cell lines; type: cell-based, human; conditions: ERL→DOX in NCI-H1650, A549 and NCI-H358
Excerpt: as §6

NCI-H1650 cells = assay: Apoptosis, cleaved caspase-3/cleaved PARP flow cytometry; conditions: time-staggered inhibition of EGFR using erlotinib (ERL→DOX)
A549 = assay: as above; conditions: time-staggered inhibition of EGFR using erlotinib (ERL→DOX)
[9] = tested on: ten triple-negative cell lines; assay: Apoptosis across panel of triple-negative cell lines; type: cell-based, human; conditions: time-staggered ERL→DOX
Protocol: as §3, §2

MCF7 cells [10] = assay: Apoptosis, cleaved caspase-3/cleaved PARP flow cytometry
caspase-8 [11] = assay: Caspase-8 cleavage by western blot in HER2-driven cells; type: cell-based, human; conditions: lapatinib/doxorubicin combinations in HER2-driven cells (MDA-MB-453, BT-474)
Excerpt: as §6

[12] = single dose doxorubicin alone, 4 mg/kg intraperitoneally
[13] = all temporal combinations of lapatinib and doxorubicin, HER2-overexpressing cells
[14] = lapatinib pretreatment (LAP→DOX)

## C#Cc1cccc(Nc2ncnc3cc(OCCOC)c(OCCOC)cc23)c1 [erlotinib]
Hs578Bst
  effect of order and timing of drug addition on apoptosis: little effect
MDA-MB-453 cells [1]; chronic EGFR inhibition, erlotinib pretreatment before doxorubicin
  effect on doxorubicin sensitivity: antagonized doxorubicin sensitivity; also recorded: desensitized
MDA-MB-453 cells [1]; erlotinib alone
  cell death: did not cause death
BT-474 cells; pretreatment with erlotinib
  effect on sensitivity to doxorubicin: desensitization
NCI-H358
  sensitization to killing by doxorubicin: dramatic sensitization
MDA-MB-453 cells [2]
  differentially expressed genes (DEGs): 235
BT-20 cells [3]; chronic erlotinib treatment
  breast cancer subtype gene expression pattern: progressive time-dependent loss of basal-like gene expression with concomitant gain in luminal A-like gene expression
BT-20 cells [3]; 30 min
  differentially expressed genes (DEGs): few
BT-20 cells [3]; 6 hr
  differentially expressed genes (DEGs): more than 1,200
BT-20 cells [3]; 24 hr
  differentially expressed genes (DEGs): more than 2,000
BT-20 cells [3]; long-term erlotinib treatment
  GeneGO cellular networks with significant changes (of 34): 16
BT-20 cells [3]; sustained erlotinib exposure
  GSEA oncogenic signatures: loss of the Ras and MYC oncogenic signatures
MCF7 cells [4]
  genes significantly altered: one
caspase-8 [5]
  caspase-8 cleavage: caspase-8 cleavage following sequential administration, but not other drug treatments
BT-20 cells [6]
  soft agar colony formation: potently inhibited
BT-20 cells [7]
  increase in cell killing (apoptotic response): ≤ 500%
  interaction with doxorubicin in killing (Chou-Talalay method): synergistic
  killing in combination with camptothecin: Synergistic killing
  killing in combination with doxorubicin: Synergistic killing
BT-20 cells [7]; EGFR siRNA knockdown, delayed doxorubicin
  effect on apoptosis of adding erlotinib to EGFR knockdown cells: no additional effect
BT-20 cells [7]; erlotinib alone
  cell death: did not cause death
BT-20 cells [7]; erlotinib alone or added at the same time as or shortly before doxorubicin, 10 μM, TNBC (BT-20) cells
  apoptotic stimulus: not a potent apoptotic stimulus
BT-20 xenograft tumors; erlotinib 25 mg/kg given 8 hr prior to doxorubicin 4 mg/kg (E→D), i.p., 14 day monitoring
  tumor regrowth: failed to regrow
BT-20 xenograft tumors; erlotinib 25 mg/kg given at the same time as doxorubicin 4 mg/kg (D/E), i.p.
  initial reduction in tumor size versus doxorubicin alone: initial reduction in tumor size was greater
caspase-8 [8]
  caspase-8 cleavage: associated with caspase-8 cleavage
NCI-H1650 cells
  sensitization to killing by doxorubicin: dramatic sensitization
A549
  sensitization to killing by doxorubicin: dramatic sensitization
[9]; sustained EGFR inhibition
  cell lines with enhanced sensitivity to doxorubicin: nine of ten
[9]; Chou-Talalay combination index
  cell lines with synergistic effect: four of the ten
MCF7 cells [10]; all temporal erlotinib-doxorubicin combinations
  interaction with doxorubicin (Chou-Talalay method): merely additive
MCF7 cells [10]; erlotinib alone
  cell death: did not cause death

## COc1cccc2c1C(=O)c1c(O)c3c(c(O)c1C2=O)C[C@@](O)(C(=O)CO)C[C@@H]3O[C@H]1C[C@H](N)[C@H](O)[C@H](C)O1 [doxorubicin]
BT-20 xenograft tumors; [12]
  time at which residual tumors reached pretreatment volume: 14 days
  tumor volume over the first 3 days after treatment: marked reduction in tumor volume

## CS(=O)(=O)CCNCc1ccc(-c2ccc3ncnc(Nc4ccc(OCc5cccc(F)c5)c(Cl)c4)c3c2)o1 [lapatinib]
MDA-MB-453 cells [1]; [13]
  interaction with doxorubicin: synergistic
MDA-MB-453 cells [1]; [14]
  effect on sensitivity to doxorubicin: enhanced sensitivity to doxorubicin
BT-474 cells; [13]
  interaction with doxorubicin: synergistic
BT-474 cells; [14]
  effect on sensitivity to doxorubicin: enhanced sensitivity to doxorubicin
caspase-8 [11]
  caspase-8 cleavage: only observed following LAP→DOX treatment
BT-20 cells [7]; time-staggered pretreatment with EGFR inhibitor, then camptothecin
  killing in combination with camptothecin: Synergistic killing
BT-20 cells [7]; time-staggered pretreatment with EGFR inhibitor, then doxorubicin
  killing in combination with doxorubicin: Synergistic killing

From patent publication US9320750B2, “Compositions and methods of treatment of drug resistant cancers” (priority 2012, dated 2016)
